Holding throughout (format): cell-based
What all share (conditions): compounds at 50 nM and 500 nM

In one test the target is T1, GSPT1 (Homo sapiens, UniProt P15170+Q96SW2).
T1 construct: The supernatant was aspirated as the extracted total cell protein; endogenous in cells; host or cells: human peripheral blood mononuclear cells (hPBMCs)
The experiment in a line: Western blot degradation of GSPT1 in hPBMCs (24 h). In short, it runs like this:
(§1)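 hPBMCs (1×10^6 cells/mL) were treated with compound at 50 nM and 500 nM for 24 h, lysed in RIPA with protease inhibitors and analysed by SDS-PAGE/Western blot. Band grayscale, normalised to internal control, gave protein remaining (%); DC50 estimated versus DMSO bands.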
(In general: A western blot detects proteins with antibodies after separation by electrophoresis.)

The next test has as its target T2, IKZF1 (Homo sapiens, UniProt Q13422+Q96SW2).
T2 construct: The supernatant was aspirated as the extracted total cell protein; endogenous in cells; host or cells: human peripheral blood mononuclear cells (hPBMCs)
Kind of test: Western blot degradation of IKZF1 in hPBMCs (24 h). In short, it runs like this: as §1

The target of another test is T3, IKZF3 (Homo sapiens, UniProt Q96SW2+Q9UKT9).
T3 construct: The supernatant was aspirated as the extracted total cell protein; endogenous in cells; host or cells: human peripheral blood mononuclear cells (hPBMCs)
The experiment in a line: Western blot degradation of IKZF3 in hPBMCs (24 h). In short, it runs like this:
as §1

Another test has as its target T4, WEE1 (Homo sapiens, UniProt P30291+Q96SW2).
T4 construct: The supernatant was aspirated as the extracted total cell protein; endogenous in cells; host or cells: human peripheral blood mononuclear cells (hPBMCs)
The experiment in a line: Western blot degradation of WEE1 in hPBMCs (24 h). The method, boiled down: as §1

A further test concerns the target T5, CK1α (Homo sapiens, UniProt P48729+Q96SW2).
T5 construct: The supernatant was aspirated as the extracted total cell protein; endogenous in cells; host or cells: human peripheral blood mononuclear cells (hPBMCs)
Kind of test: Western blot degradation of CK1α in hPBMCs (24 h). In short, it runs like this: as §1

For the next test, the target named is T6, IKZF2 (Homo sapiens, UniProt Q96SW2+Q9UKS7).
T6 construct: The supernatant was aspirated as the extracted total cell protein; endogenous in cells; host or cells: human peripheral blood mononuclear cells (hPBMCs)
T6 sequence (Q9UKS7 whole entry): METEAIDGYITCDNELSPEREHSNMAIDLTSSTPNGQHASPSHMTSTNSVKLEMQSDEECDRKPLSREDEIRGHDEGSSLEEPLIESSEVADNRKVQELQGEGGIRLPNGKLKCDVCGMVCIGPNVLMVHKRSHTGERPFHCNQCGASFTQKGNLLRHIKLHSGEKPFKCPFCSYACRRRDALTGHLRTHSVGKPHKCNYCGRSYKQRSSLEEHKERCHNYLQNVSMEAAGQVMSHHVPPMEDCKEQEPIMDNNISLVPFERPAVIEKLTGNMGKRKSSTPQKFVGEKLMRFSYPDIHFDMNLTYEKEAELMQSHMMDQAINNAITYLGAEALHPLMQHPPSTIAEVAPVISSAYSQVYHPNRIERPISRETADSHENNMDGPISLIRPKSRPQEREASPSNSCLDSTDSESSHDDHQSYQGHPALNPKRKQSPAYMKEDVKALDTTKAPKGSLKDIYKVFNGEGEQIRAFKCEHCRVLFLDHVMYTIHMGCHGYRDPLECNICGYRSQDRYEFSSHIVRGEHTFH
T6 sequence (Q96SW2 whole entry): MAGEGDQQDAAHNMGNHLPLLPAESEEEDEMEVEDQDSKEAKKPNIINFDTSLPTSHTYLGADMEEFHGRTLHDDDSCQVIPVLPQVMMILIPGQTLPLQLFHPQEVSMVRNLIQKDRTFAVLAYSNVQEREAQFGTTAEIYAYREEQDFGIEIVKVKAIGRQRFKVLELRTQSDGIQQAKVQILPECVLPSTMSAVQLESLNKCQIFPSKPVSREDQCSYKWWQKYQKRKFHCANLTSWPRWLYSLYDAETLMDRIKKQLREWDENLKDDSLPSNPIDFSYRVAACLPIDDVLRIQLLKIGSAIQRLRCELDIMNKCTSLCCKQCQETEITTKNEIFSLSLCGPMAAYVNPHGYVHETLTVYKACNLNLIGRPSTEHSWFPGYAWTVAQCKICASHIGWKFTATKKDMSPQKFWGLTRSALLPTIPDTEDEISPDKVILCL
T6 sequence (Q16531 whole entry partner): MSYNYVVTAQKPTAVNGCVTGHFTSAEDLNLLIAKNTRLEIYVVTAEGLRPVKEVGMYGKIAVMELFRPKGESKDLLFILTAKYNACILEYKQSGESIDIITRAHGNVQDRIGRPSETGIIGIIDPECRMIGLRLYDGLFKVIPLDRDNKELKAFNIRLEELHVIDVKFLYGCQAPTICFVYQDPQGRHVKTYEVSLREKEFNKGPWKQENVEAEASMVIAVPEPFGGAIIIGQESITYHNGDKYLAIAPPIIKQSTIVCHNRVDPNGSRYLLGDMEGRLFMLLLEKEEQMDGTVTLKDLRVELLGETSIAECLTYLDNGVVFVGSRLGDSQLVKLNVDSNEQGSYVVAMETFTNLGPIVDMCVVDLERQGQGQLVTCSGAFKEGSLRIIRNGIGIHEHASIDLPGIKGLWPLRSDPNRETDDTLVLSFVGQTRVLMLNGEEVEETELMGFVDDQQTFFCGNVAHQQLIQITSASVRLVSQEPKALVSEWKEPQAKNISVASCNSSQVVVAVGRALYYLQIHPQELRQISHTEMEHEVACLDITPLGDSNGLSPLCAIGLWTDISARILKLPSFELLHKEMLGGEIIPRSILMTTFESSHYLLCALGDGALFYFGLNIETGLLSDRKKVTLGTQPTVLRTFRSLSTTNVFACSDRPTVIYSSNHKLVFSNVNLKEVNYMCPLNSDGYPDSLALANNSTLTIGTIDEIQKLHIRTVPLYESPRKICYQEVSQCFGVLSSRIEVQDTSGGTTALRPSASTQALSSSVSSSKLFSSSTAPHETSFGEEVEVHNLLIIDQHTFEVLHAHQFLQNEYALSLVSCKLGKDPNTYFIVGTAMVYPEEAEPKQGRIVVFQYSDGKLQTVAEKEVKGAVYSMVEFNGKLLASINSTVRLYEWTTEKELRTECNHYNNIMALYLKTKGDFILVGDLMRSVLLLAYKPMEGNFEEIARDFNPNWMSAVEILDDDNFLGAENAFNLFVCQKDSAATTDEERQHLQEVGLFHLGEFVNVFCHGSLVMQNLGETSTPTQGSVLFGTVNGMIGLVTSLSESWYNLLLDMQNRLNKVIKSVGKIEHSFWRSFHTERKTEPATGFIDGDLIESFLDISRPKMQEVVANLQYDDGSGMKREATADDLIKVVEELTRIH
The experiment in a line: Western blot degradation of IKZF2 in hPBMCs (24 h). The method, boiled down:
as §1

T1 sequence (P15170 whole entry): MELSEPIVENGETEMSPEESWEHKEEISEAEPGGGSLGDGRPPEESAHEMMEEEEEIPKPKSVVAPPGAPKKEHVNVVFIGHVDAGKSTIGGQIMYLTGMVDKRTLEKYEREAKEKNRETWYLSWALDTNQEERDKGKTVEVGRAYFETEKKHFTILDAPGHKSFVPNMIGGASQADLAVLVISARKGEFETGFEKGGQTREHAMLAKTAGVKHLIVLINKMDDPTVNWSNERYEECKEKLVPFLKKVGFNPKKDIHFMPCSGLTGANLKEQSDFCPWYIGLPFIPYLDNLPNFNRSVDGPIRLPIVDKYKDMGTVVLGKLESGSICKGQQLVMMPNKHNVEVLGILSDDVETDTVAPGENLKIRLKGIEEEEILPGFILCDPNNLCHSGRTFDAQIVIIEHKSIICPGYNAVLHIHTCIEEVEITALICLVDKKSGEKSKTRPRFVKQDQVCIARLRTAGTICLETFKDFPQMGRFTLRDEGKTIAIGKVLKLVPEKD
T1 sequence (Q96SW2 whole entry): as the sequence (Q96SW2 whole entry) above
T1 sequence (Q16531 whole entry partner): as the sequence (Q16531 whole entry partner) above
T5 sequence (P48729 whole entry): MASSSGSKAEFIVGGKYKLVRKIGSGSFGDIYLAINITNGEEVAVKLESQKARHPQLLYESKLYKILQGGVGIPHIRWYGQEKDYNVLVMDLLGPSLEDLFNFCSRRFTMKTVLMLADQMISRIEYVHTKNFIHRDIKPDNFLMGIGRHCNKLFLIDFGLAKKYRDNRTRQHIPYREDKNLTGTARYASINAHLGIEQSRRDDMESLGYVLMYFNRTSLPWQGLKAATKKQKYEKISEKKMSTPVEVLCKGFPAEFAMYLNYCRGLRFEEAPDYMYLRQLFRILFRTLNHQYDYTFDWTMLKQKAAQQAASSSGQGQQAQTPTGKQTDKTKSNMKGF
T5 sequence (Q96SW2 whole entry): as the sequence (Q96SW2 whole entry) above
T5 sequence (Q16531 whole entry partner): as the sequence (Q16531 whole entry partner) above
T2 sequence (Q13422 whole entry): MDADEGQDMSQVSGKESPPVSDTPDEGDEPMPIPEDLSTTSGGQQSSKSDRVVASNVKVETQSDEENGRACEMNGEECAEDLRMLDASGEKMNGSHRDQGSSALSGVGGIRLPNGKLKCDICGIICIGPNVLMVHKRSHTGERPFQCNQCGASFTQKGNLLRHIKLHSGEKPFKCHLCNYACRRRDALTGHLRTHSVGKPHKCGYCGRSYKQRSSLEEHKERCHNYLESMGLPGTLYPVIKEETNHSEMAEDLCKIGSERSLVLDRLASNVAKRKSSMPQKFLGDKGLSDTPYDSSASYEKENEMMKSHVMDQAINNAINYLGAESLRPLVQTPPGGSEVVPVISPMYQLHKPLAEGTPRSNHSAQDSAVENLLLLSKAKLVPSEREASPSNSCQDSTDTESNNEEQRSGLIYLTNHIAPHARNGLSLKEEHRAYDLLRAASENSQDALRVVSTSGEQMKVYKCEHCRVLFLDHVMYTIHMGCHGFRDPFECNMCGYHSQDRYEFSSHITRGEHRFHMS
T2 sequence (Q96SW2 whole entry): as the sequence (Q96SW2 whole entry) above
T2 sequence (Q16531 whole entry partner): as the sequence (Q16531 whole entry partner) above
T4 sequence (P30291 whole entry): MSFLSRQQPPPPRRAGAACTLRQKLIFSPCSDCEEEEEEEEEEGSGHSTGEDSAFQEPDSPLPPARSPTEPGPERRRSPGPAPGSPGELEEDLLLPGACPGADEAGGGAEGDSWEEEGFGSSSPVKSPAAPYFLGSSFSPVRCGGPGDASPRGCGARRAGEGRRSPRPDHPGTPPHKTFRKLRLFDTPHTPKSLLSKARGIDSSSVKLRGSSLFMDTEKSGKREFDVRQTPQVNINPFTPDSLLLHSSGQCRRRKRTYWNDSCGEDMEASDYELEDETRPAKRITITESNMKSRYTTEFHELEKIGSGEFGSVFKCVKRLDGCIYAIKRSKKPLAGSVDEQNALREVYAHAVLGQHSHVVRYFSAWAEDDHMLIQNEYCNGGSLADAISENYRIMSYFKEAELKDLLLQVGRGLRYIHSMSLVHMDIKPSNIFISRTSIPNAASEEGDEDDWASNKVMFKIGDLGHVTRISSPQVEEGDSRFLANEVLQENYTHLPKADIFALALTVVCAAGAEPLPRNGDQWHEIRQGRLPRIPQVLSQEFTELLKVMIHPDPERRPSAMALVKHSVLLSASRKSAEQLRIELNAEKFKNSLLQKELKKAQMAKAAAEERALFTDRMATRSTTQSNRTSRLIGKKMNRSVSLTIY
T4 sequence (Q96SW2 whole entry): as the sequence (Q96SW2 whole entry) above
T4 sequence (Q16531 whole entry partner): as the sequence (Q16531 whole entry partner) above

Regarding `CC1(C)CN(Cc2ccc3c(c2)C(=O)N(N2CCC(=O)NC2=O)C3=O)CCN1C(c1ccccc1)c1ccccc1` [GT-06385, 5-((4-benzhydryl-3,3-dimethylpiperazin-1-yl)methyl)-2-(2,4-dioxotetrahydropyrimidin-1(2H)-yl)isoindoline-1,3-dione], the “GSPT1 substrate protein remaining %” value at GSPT1 is “A (0% ≤ substrate protein remaining % ≤80%)”. Further, on IKZF1, the “IKZF1 substrate protein remaining %” value was “B (80%< substrate protein remaining % ≤100%)”. Besides, the “IKZF3 substrate protein remaining %” value at IKZF3 is reported as “A (0% ≤ substrate protein remaining % ≤80%)”. Also, the “WEE1 substrate protein remaining %” value on WEE1 is recorded as “A (0% ≤ substrate protein remaining % ≤80%)”. Further, on CK1α, the “CK1α substrate protein remaining %” value is “B (80%< substrate protein remaining % ≤100%)”. Besides, the “IKZF2 substrate protein remaining %” value at IKZF2 is reported as “B (80%< substrate protein remaining % ≤100%)”.
`O=C1CCN(N2Cc3cc(CN4CCC(c5nccc(Cl)c5Cl)CC4)ccc3C2=O)C(=O)N1` [GT-06388, 1-(5-((4-(3,4-dichloropyridin-2-yl)piperidin-1-yl)methyl)-1-oxoisoindolin-2-yl)dihydropyrimidine-2,4(1H,3H)-dione]: the “GSPT1 substrate protein remaining %” value at GSPT1 was “A (0% ≤ substrate protein remaining % ≤80%)”. Moreover, the “IKZF1 substrate protein remaining %” value on IKZF1 is given as “B (80%< substrate protein remaining % ≤100%)”. The “IKZF3 substrate protein remaining %” value on IKZF3 was “B (80%< substrate protein remaining % ≤100%)”. The “WEE1 substrate protein remaining %” value at WEE1 was “B (80%< substrate protein remaining % ≤100%)”. For the same molecule, at CK1α, the “CK1α substrate protein remaining %” value was “B (80%< substrate protein remaining % ≤100%)”. Also, the “IKZF2 substrate protein remaining %” value at IKZF2 is on record as “B (80%< substrate protein remaining % ≤100%)”.
Consider `O=C1CCN(N2Cc3cc(CN4CCC(c5ccnc(Cl)c5Cl)CC4)ccc3C2=O)C(=O)N1` [GT-06390, 1-(5-((4-(2,3-dichloropyridin-4-yl)piperidin-1-yl)methyl)-1-oxoisoindolin-2-yl)dihydropyrimidine-2,4(1H,3H)-dione], for which the “GSPT1 substrate protein remaining %” value on GSPT1 is recorded as “A (0% ≤ substrate protein remaining % ≤80%)”. At IKZF1, the “IKZF1 substrate protein remaining %” value is reported as “B (80%< substrate protein remaining % ≤100%)”. The “IKZF3 substrate protein remaining %” value at IKZF3 is recorded as “B (80%< substrate protein remaining % ≤100%)”. Also, at WEE1, the “WEE1 substrate protein remaining %” value was “B (80%< substrate protein remaining % ≤100%)”. Further, the “CK1α substrate protein remaining %” value on CK1α is on record as “B (80%< substrate protein remaining % ≤100%)”. Besides, the “IKZF2 substrate protein remaining %” value at IKZF2 was “B (80%< substrate protein remaining % ≤100%)”.
`O=C1CCN(N2Cc3cc(CN4CC=C(c5cncc(Cl)c5)CC4)ccc3C2=O)C(=O)N1` [GT-06394, 1-(5-((5-chloro-3′,6′-dihydro-[3,4′-bipyridin]-1′ (2′H)-yl)methyl)-1-oxoisoindolin-2-yl)dihydropyrimidine-2,4(1H,3H)-dione]: the “GSPT1 substrate protein remaining %” value on GSPT1 is on record as “A (0% ≤ substrate protein remaining % ≤80%)”. Further, the “IKZF1 substrate protein remaining %” value at IKZF1 is on record as “B (80%< substrate protein remaining % ≤100%)”. The “IKZF3 substrate protein remaining %” value at IKZF3 was “B (80%< substrate protein remaining % ≤100%)”. The “WEE1 substrate protein remaining %” value at WEE1 is “B (80%< substrate protein remaining % ≤100%)”. Besides, on CK1α, the “CK1α substrate protein remaining %” value is “A (0% ≤ substrate protein remaining % ≤80%)”. Moreover, the “IKZF2 substrate protein remaining %” value on IKZF2 was “A (0% ≤ substrate protein remaining % ≤80%)”.
On to `O=C1CCN(N2Cc3cc(CN4CC=C(c5ncccc5F)CC4)ccc3C2=O)C(=O)N1` [GT-06395, 1-(5-((3-fluoro-3′,6′-dihydro-[2,4′-bipyridin]-1′ (2′H)-yl)methyl)-1-oxoisoindolin-2-yl)dihydropyrimidine-2,4(1H,3H)-dione], for which the “GSPT1 substrate protein remaining %” value on GSPT1 was “A (0% ≤ substrate protein remaining % ≤80%)”. The “IKZF1 substrate protein remaining %” value at IKZF1 is recorded as “B (80%< substrate protein remaining % ≤100%)”. For the same molecule, the “IKZF3 substrate protein remaining %” value on IKZF3 was “B (80%< substrate protein remaining % ≤100%)”. Moreover, the “WEE1 substrate protein remaining %” value on WEE1 is reported as “B (80%< substrate protein remaining % ≤100%)”. Also, on CK1α, the “CK1α substrate protein remaining %” value is “A (0% ≤ substrate protein remaining % ≤80%)”. Further, on IKZF2, the “IKZF2 substrate protein remaining %” value is “B (80%< substrate protein remaining % ≤100%)”.
Consider `O=C1CCN(N2Cc3cc(CN4CCC(c5ccnc(F)c5F)CC4)ccc3C2=O)C(=O)N1` [GT-06396, 1-(5-((4-(2,3-difluoropyridin-4-yl)piperidin-1-yl)methyl)-1-oxoisoindolin-2-yl)dihydropyrimidine-2,4(1H,3H)-dione], for which the “GSPT1 substrate protein remaining %” value at GSPT1 was “B (80%< substrate protein remaining % ≤100%)”. Moreover, the “IKZF1 substrate protein remaining %” value on IKZF1 is recorded as “B (80%< substrate protein remaining % ≤100%)”. Moreover, the “IKZF3 substrate protein remaining %” value at IKZF3 is “B (80%< substrate protein remaining % ≤100%)”. The “WEE1 substrate protein remaining %” value on WEE1 is given as “B (80%< substrate protein remaining % ≤100%)”. Also, the “CK1α substrate protein remaining %” value at CK1α is “A (0% ≤ substrate protein remaining % ≤80%)”. Also, the “IKZF2 substrate protein remaining %” value on IKZF2 is “B (80%< substrate protein remaining % ≤100%)”.
Take `O=C1CCN(N2Cc3cc(CN4CC=C(c5ccnc(F)c5F)CC4)ccc3C2=O)C(=O)N1` [GT-06397, 1-(5-((2′,3′-difluoro-3,6-dihydro-[4,4′-bipyridin]-1(2H)-yl)methyl)-1-oxoisoindolin-2-yl)dihydropyrimidine-2,4(1H,3H)-dione]: the “GSPT1 substrate protein remaining %” value at GSPT1 was “A (0% ≤ substrate protein remaining % ≤80%)”. For the same molecule, at IKZF1, the “IKZF1 substrate protein remaining %” value is given as “B (80%< substrate protein remaining % ≤100%)”. The “IKZF3 substrate protein remaining %” value at IKZF3 is listed as “B (80%< substrate protein remaining % ≤100%)”. In addition, the “WEE1 substrate protein remaining %” value on WEE1 is on record as “A (0% ≤ substrate protein remaining % ≤80%)”. Also, at CK1α, the “CK1α substrate protein remaining %” value is on record as “B (80%< substrate protein remaining % ≤100%)”. Moreover, the “IKZF2 substrate protein remaining %” value on IKZF2 was “A (0% ≤ substrate protein remaining % ≤80%)”.
Regarding `CC1CN(Cc2ccc3c(c2)C(=O)N(N2CCC(=O)NC2=O)C3=O)CC(C)N1C(c1ccccc1)c1ccccc1` (stereo not drawn) [GT-06430, 5-((4-benzhydryl-3,5-dimethylpiperazin-1-yl)methyl)-2-(2,4-dioxotetrahydropyrimidin-1(2H)-yl)isoindoline-1,3-dione], the “GSPT1 substrate protein remaining %” value on GSPT1 was “A (0% ≤ substrate protein remaining % ≤80%)”. Further, the “IKZF1 substrate protein remaining %” value at IKZF1 was “A (0% ≤ substrate protein remaining % ≤80%)”. Besides, the “IKZF3 substrate protein remaining %” value on IKZF3 was “A (0% ≤ substrate protein remaining % ≤80%)”. Also, on WEE1, the “WEE1 substrate protein remaining %” value is recorded as “A (0% ≤ substrate protein remaining % ≤80%)”. In addition, the “CK1α substrate protein remaining %” value on CK1α is “B (80%< substrate protein remaining % ≤100%)”. Further, the “IKZF2 substrate protein remaining %” value at IKZF2 is “B (80%< substrate protein remaining % ≤100%)”.
As to `CC1CN(Cc2ccc3c(c2)CN(N2CCC(=O)NC2=O)C3=O)CC(C)N1C(c1ccccc1)c1ccccc1` (stereo not drawn) [GT-06431, 1-(5-((4-benzhydryl-3,5-dimethylpiperazin-1-yl)methyl)-1-oxoisoindolin-2-yl)dihydropyrimidine-2,4(1H,3H)-dione], the “GSPT1 substrate protein remaining %” value on GSPT1 is recorded as “A (0% ≤ substrate protein remaining % ≤80%)”. For the same molecule, the “IKZF1 substrate protein remaining %” value on IKZF1 was “A (0% ≤ substrate protein remaining % ≤80%)”. For the same molecule, on IKZF3, the “IKZF3 substrate protein remaining %” value was “B (80%< substrate protein remaining % ≤100%)”. For the same molecule, at WEE1, the “WEE1 substrate protein remaining %” value is reported as “A (0% ≤ substrate protein remaining % ≤80%)”. Besides, the “CK1α substrate protein remaining %” value on CK1α is recorded as “B (80%< substrate protein remaining % ≤100%)”. Further, the “IKZF2 substrate protein remaining %” value on IKZF2 is listed as “A (0% ≤ substrate protein remaining % ≤80%)”.
Consider `O=C1CCN(N2C(=O)c3ccc(CN4CCN(Cc5ccccc5-c5ccc(Cl)cc5)CC4)cc3C2=O)C(=O)N1` [GT-06432, 5-((4-((4′-chloro-[1,1′-biphenyl]-2-yl)methyl)piperazin-1-yl)methyl)-2-(2,4-dioxotetrahydropyrimidin-1(2H)-yl)isoindoline-1,3-dione], for which, on GSPT1, the “GSPT1 substrate protein remaining %” value is given as “A (0% ≤ substrate protein remaining % ≤80%)”. The “IKZF1 substrate protein remaining %” value at IKZF1 is reported as “A (0% ≤ substrate protein remaining % ≤80%)”. Further, the “IKZF3 substrate protein remaining %” value on IKZF3 is given as “B (80%< substrate protein remaining % ≤100%)”. On WEE1, the “WEE1 substrate protein remaining %” value is recorded as “A (0% ≤ substrate protein remaining % ≤80%)”. In addition, the “CK1α substrate protein remaining %” value at CK1α is on record as “B (80%< substrate protein remaining % ≤100%)”. The “IKZF2 substrate protein remaining %” value at IKZF2 was “B (80%< substrate protein remaining % ≤100%)”.
With `O=C1CCN(N2Cc3cc(CN4CCN(Cc5ccccc5-c5ccc(Cl)cc5)CC4)ccc3C2=O)C(=O)N1` [GT-06433, 1-(5-((4-((4′-chloro-[1,1′-biphenyl]-2-yl)methyl)piperazin-1-yl)methyl)-1-oxoisoindolin-2-yl)dihydropyrimidine-2,4(1H,3H)-dione], at GSPT1, the “GSPT1 substrate protein remaining %” value is reported as “A (0% ≤ substrate protein remaining % ≤80%)”. Also, the “IKZF1 substrate protein remaining %” value on IKZF1 is given as “A (0% ≤ substrate protein remaining % ≤80%)”. Also, the “IKZF3 substrate protein remaining %” value on IKZF3 is “A (0% ≤ substrate protein remaining % ≤80%)”. Further, at WEE1, the “WEE1 substrate protein remaining %” value is on record as “A (0% ≤ substrate protein remaining % ≤80%)”. For the same molecule, at CK1α, the “CK1α substrate protein remaining %” value is “B (80%< substrate protein remaining % ≤100%)”. Moreover, on IKZF2, the “IKZF2 substrate protein remaining %” value is given as “A (0% ≤ substrate protein remaining % ≤80%)”.

The values are drawn from US20260356819A1, “OXOISOINDOLINYL-SUBSTITUTED […] DERIVATIVE AND USE THEREOF” (GLUETACS THERAPEUTICS (SHANGHAI) CO., LTD., priority 2023, published 2026).
